Measured values from patent US11464749B2, “Bismuth-thiol compositions and methods of use” (Microbion Corporation, priority 2018, dated 2022).
“And” between values parts separate entries of the source, which are not always exact repeats. Identical values can stand only once. Like-named read-outs stand apart in the source and are kept apart here.

What was measured:
[1] = tested on: B. dolosa (cepacia complex); experiment: MIC against CF bacterial strains (Example 5); assay type: cell-based; details: Burkholderia dolosa; strain BC 11, CF isolate, beta lactam-R, TMP/SMX-S, FQ-R
Experimental: (§1) A range of CF-isolated strains of Mycobacterium avium and Mycobacterium abscessus were included; which allows for understanding of the activity against non-tubercular Mycobacteria (NTM). Two distinct bismuth-thiol compounds were evaluated, including BisEDT and BisBDT. […] The CF-isolates of greater clinical relevance, including both M abscessus spp. and Burkholderia spp., were both consistently found to be much more susceptible to BisEDT and BisBDT.

[2] = tested on: B. cepcacia complex (not further speciated); experiment: MIC against CF bacterial strains (Example 5); assay type: cell-based; details: beta lactam-S, TMP/SMX-S
Experimental: as §1

[3] = tested on: B. multivorans (cepacia complex); experiment: MIC against CF bacterial strains (Example 5); assay type: cell-based; details: Burkholderia multivorans
Experimental: as §1

[4] = tested on: B. cepacia (cepacia complex); experiment: MIC against CF bacterial strains (Example 5); assay type: cell-based; details: Burkholderia cepacia
Experimental: as §1

S. aureus ATCC 29213 [5] = experiment: Broth microdilution MIC, ATCC QC organism (Example 12); details: Staphylococcus aureus, ATCC29213
A. flavus = experiment: Broth microdilution antifungal susceptibility (Example 13); assay type: cell-based; details: Aspergillus flavus
A. fumigatus = experiment: as above; assay type: cell-based; details: for MIC: Aspergillus fumigatus
[6] = tested on: MABSC / M. abscessus biofilms; experiment: Activity against CF-isolate biofilms; assay type: cell-based; details: AMT0130-8 (MABSC CF-isolate)
S. maltophilia = experiment: MIC against CF bacterial strains (Example 5); details: Stenotrophomonas maltophilia
S. aureus ATCC 29213 [7] = details: control strain ATCC 29213; per CLSI M100-S24 or provided by Microbion; cited from earlier work
Candida auris = experiment: Broth microdilution antifungal susceptibility (Example 13); assay type: cell-based; details: Candidozyma auris
Candida krusei = experiment: as above; assay type: cell-based; details: Pichia kudriavzevii
[8] = tested on: P. aeruginosa and A. baumannii; experiment: Broth microdilution MIC (Example 11); details: read-out: MIC values
M. abscessus complex = experiment: MIC against CF bacterial strains (Example 5); assay type: cell-based, Mycobacterium abscessus; details: Mycobacteroides abscessus
Experimental: as §1

[9] = tested on: beta-hemolytic streptococci; experiment: Broth microdilution MIC (Example 11); details: read-out: MIC values

What does the source list for `CC(S)C(C)S.[Bi]` (stereo not drawn) [BisBDT, bismuth-2,3-butanedithiol]?
MIC [1]: 0.5 µg/mL; MIC ([2]; strain BC 9, CF isolate, FQ-R): 0.5 µg/mL; MIC ([2]; strain PC 213, CF isolate, FQ-S): 1 µg/mL; MIC ([3]; strain BC 5, CF isolate, beta lactam-S, TMP/SMX-S, FQ-I): 2 µg/mL; MIC ([3]; strain BC5b): 1 µg/mL; MIC ([4]; strain BC17): 8 µg/mL; MIC ([4]; strain BC 17, CF isolate, beta lactam-R, TMP/SMX-R, FQ-R): 4 µg/mL; MIC (S. aureus ATCC 29213 [5]): 0.12 µg/mL; MIC (A. flavus; ATCC22546, A. flavus ATCC 22546, 24 hr, read-out: MIC0 24 hr): 1 µg/mL; MIC (A. flavus; ATCC22546, A. flavus ATCC 22546, 48 hr, read-out: MIC0 48 hr): 2 µg/mL; MIC (A. flavus; ATCC204304, A. flavus ATCC 204304, 24 hr, read-out: MIC0 24 hr): 4 µg/mL; MIC (A. flavus; ATCC204304, A. flavus ATCC 204304, 48 hr, read-out: MEC at 48 hr (MIC0 not observed)): 4 µg/mL; MIC (A. flavus; A. flavus MMX 7935, 24 hr, read-out: MIC0 24 hr): 8 µg/mL; MIC (A. flavus; A. flavus MMX 7935, 48 hr, read-out: MIC0 48 hr): 8 µg/mL; MIC0 24 hr (A. fumigatus; A. fumigatus ATCC MYA-3626, 24 hr): 2 µg/mL; MIC0 24 hr (A. fumigatus; A. fumigatus MMX 5934, 24 hr): 2 µg/mL; MEC at 48 hr (MIC0 not observed) (A. fumigatus; A. fumigatus MMX 5934, 48 hr): 4 µg/mL; MIC (A. fumigatus; ATCC204305, A. fumigatus ATCC 204305, 24 hr, read-out: MIC0 24 hr): 8 µg/mL; MIC (A. fumigatus; ATCC204305, A. fumigatus ATCC 204305, 48 hr, read-out: MEC at 48 hr (MIC0 not observed)): 4 µg/mL; MIC (A. fumigatus; A. fumigatus ATCC MYA-3626, 48 hr, read-out: MIC0 48 hr): 4 µg/mL; MIC (A. fumigatus; A. fumigatus MMX 5939, 24 hr, read-out: MIC0 24 hr): 2 µg/mL; MIC (A. fumigatus; A. fumigatus MMX 5939, 48 hr, read-out: MEC at 48 hr (MIC0 not observed)): 4 µg/mL; MIC (A. fumigatus; read-out: MIC0 48 hr): 1 µg/mL; reduction in biofilm cell viability [6]: only very modest reductions; MIC (S. maltophilia): 0.13 µg/mL; Expected MIC: goal (acceptable range) (S. aureus ATCC 29213 [7]): 0.25 mcg/mL and 0.25 (0.12-0.5) mcg/mL; MIC (Candida auris; read-out: MIC0 (complete inhibition), isolate MMX 9862 (Susceptible)): 1 µg/mL; MIC (Candida auris; read-out: MIC0 (complete inhibition), isolate MMX 9863 (FLU-R, VORI-R)): 2 µg/mL; MIC (Candida auris; read-out: MIC0 (complete inhibition), isolate MMX 9864 (FLU-R, VORI-R)): 1 µg/mL; MIC (Candida auris; read-out: MIC0 (complete inhibition), isolate MMX 9865 (FLU-R, VORI-R)): 2 µg/mL; MIC (Candida auris; read-out: MIC0 (complete inhibition), isolate MMX 9866 (FLU-R, VORI-R)): 2 µg/mL; MIC (Candida auris; read-out: MIC0 (complete inhibition), isolate MMX 9867 (FLU-R, VORI-R)): 2 µg/mL; MIC (Candida auris; read-out: MIC0 (complete inhibition), isolate MMX 9868 (FLU-R, VORI-R)): 4 µg/mL; MIC (Candida auris; read-out: MIC0 (complete inhibition), isolate MMX 9869 (FLU-R, VORI-R)): 4 µg/mL; MIC (Candida auris; read-out: MIC0 (complete inhibition), isolate MMX 9870 (FLU-R, VORI-R)): 2 µg/mL; MIC (Candida auris; read-out: MIC0 (complete inhibition), isolate MMX 9871 (Susceptible)): 2 µg/mL; MIC (Candida auris; read-out: MIC2 (50% inhibition), isolate MMX 9862 (Susceptible)): 0.5 µg/mL; MIC (Candida auris; read-out: MIC2 (50% inhibition), isolate MMX 9863 (FLU-R, VORI-R)): 1 µg/mL; MIC (Candida auris; read-out: MIC2 (50% inhibition), isolate MMX 9864 (FLU-R, VORI-R), result after 48 hr incubation (insufficient growth at 24 hr)): 1 µg/mL; MIC (Candida auris; read-out: MIC2 (50% inhibition), isolate MMX 9865 (FLU-R, VORI-R)): 1 µg/mL; MIC (Candida auris; read-out: MIC2 (50% inhibition), isolate MMX 9866 (FLU-R, VORI-R)): 1 µg/mL; MIC (Candida auris; read-out: MIC2 (50% inhibition), isolate MMX 9867 (FLU-R, VORI-R)): 1 µg/mL; MIC (Candida auris; read-out: MIC2 (50% inhibition), isolate MMX 9868 (FLU-R, VORI-R)): 1 µg/mL; MIC (Candida auris; read-out: MIC2 (50% inhibition), isolate MMX 9869 (FLU-R, VORI-R)): 1 µg/mL; MIC (Candida auris; read-out: MIC2 (50% inhibition), isolate MMX 9870 (FLU-R, VORI-R)): 1 µg/mL; MIC (Candida auris; read-out: MIC2 (50% inhibition), isolate MMX 9871 (Susceptible)): 1 µg/mL; MIC (Candida krusei; ATCC6258, read-out: MIC0 (complete inhibition)): 1 µg/mL; MIC (Candida krusei; ATCC14243, read-out: MIC0 (complete inhibition)): 1 µg/mL; MIC (Candida krusei; ATCC96685, read-out: MIC2 (50% inhibition)): 0.25 µg/mL; MIC (Candida krusei; read-out: MIC2 (50% inhibition)): 1 µg/mL; MIC (Candida krusei; read-out: MIC0 (complete inhibition)): 2 µg/mL; MIC [8]: 0.5 to 2 µg/mL; MIC (M. abscessus complex; AMT0068-40, M abscessus/massiliense complex, read-out: MIC): 0.06 µg/mL; MIC (M. abscessus complex; AMT 0068-40, MABSC CF isolate, macrolide-S, amikacin-I): 0.125 µg/mL; MIC (M. abscessus complex; AMT 0089-5, MABSC CF isolate, macrolide-R, amikacin-R): 0.125 µg/mL; MIC (M. abscessus complex; AMT0119-7, M abscessus/massiliense complex, read-out: MIC): < 0.03 µg/mL; MIC (M. abscessus complex; AMT 0119-7, MABSC CF isolate, macrolide-S, amikacin-I): 0.125 µg/mL; MIC (M. abscessus complex; AMT0130-8, M abscessus/massiliense complex, read-out: MIC): < 0.03 µg/mL; MIC (M. abscessus complex; AMT 0130-8, MABSC CF isolate, macrolide-S, amikacin-I, read-out: MIC): 0.0625 µg/mL; MIC (M. abscessus complex; AMT 0136-10, MABSC CF isolate, macrolide-R, amikacin-R, read-out: MIC): 0.0625 µg/mL; MIC (M. abscessus complex; AMT153-9, M abscessus/massiliense complex, read-out: MIC): < 0.03 µg/mL; MIC (M. abscessus complex; AMT 0153-9, MABSC CF isolate, macrolide-S, amikacin-I): 0.125 µg/mL; MIC (M. abscessus complex; AMT 0157-14, MABSC CF isolate, macrolide-R, amikacin-I): 0.125 µg/mL; MIC (M. abscessus complex; AMT 0166-29, MABSC CF isolate, macrolide-R, amikacin-R): 0.125 µg/mL; MIC (M. abscessus complex; AMT0493-2, M abscessus/massiliense complex, Amikacin resistant, read-out: MIC): 0.125 µg/mL; MIC (M. abscessus complex; AMT 0493-2, MABSC CF isolate, macrolide-S, amikacin-R): 0.5 µg/mL; MIC (M. abscessus complex; ATCC19977, ATCC 19977, M abscessus/massiliense complex, Macrolide resistant (inducible), read-out: MIC): < 0.03 µg/mL; MIC (M. abscessus complex; ATCC19977, ATCC 19977, M. abscessus abscessus, ATCC type strain, read-out: MIC): 0.25 µg/mL; MIC [9]: 0.03 to 2 µg/mL
